Assays:
Wee1 kinase domain = biological target: T1, Wee1 kinase domain (Homo sapiens, UniProt P30291); test: Wee1 Kinase Biochemical Assay (ADP-Glo); settings: Wee1 kinase domain, 15 uM ATP, ADP-Glo
T1 construct: Wee1 kinase domain was purchased from Carna (catalog #05-177); purchased Carna 05-177
Summary of the method: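 Kinase domain (1 nM) incubated 4 h at 25 °C with 15 uM ATP and 2 ng/mL Poly(Lys,Tyr 4:1) in 40 mM Tris-HCl, 20 mM MgCl2, 0.1 mg/mL BSA, 2 mM DTT. ADP formation read by ADP-Glo luminescence; percent inhibition normalized to DMSO and saturating reference-inhibitor controls.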

[1] = system: phosphorylation of Cdc2 Y15 (Wee1 substrate) in A427 cells; test: Phosphorylated Cdc2 MSD Electrochemiluminescence Assay; format: cell-based; settings: Homo sapiens, A-427, pCDC2 MSD
Summary of the method: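 A427 cells (RPMI 1640, 10% FBS) treated 20 h after plating with 3-fold serial compound dilutions, in duplicate, 37 °C, 5% CO2; total incubation 6 h. Lysate Cdc2 pY15 read by MSD electrochemiluminescence sandwich immunoassay; % remaining signal normalised to DMSO (high) and reference Wee1 inhibitor (low) controls.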

T1 sequence (P30291 299-569 limits assumed): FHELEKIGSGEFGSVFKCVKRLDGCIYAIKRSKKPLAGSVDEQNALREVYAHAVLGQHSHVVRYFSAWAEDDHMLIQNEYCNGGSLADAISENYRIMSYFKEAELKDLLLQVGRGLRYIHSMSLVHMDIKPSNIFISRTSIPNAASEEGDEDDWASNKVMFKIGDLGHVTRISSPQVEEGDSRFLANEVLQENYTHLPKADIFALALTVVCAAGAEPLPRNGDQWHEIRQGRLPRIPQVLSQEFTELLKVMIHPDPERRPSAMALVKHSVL

## CC1(C)C[C@H]2N(c3cccc(N=S(C)(C)=O)n3)c3nc(Nc4ccc([C@]5(C)CCNC5)cc4)ncc3[C@@]2(C)CO1 (single isomer, unassigned) [Example 171]
Wee1 kinase domain
  IC50: < 10 nM
[1]
  IC50: 100 to 1000 nM

## CC1(C)C[C@@H]2N(c3cccc(N=S(C)(C)=O)n3)c3nc(Nc4ccc([C@]5(C)CCNC5)cc4)ncc3[C@]2(C)CO1 (single isomer, unassigned) [Example 173]
Wee1 kinase domain
  IC50: < 10 nM
[1]
  IC50: < 100 nM

## CN1C[C@H]2C[C@@H]1CN2c1ccc(Nc2ncc3c(n2)N(c2cccc(N=S(C)(C)=O)n2)[C@@H]2CC(C)(C)OC[C@]32C)cc1F (single isomer, unassigned) [Example 176]
Wee1 kinase domain
  IC50: < 10 nM
[1]
  IC50: 100 to 1000 nM

## CN1CCC(c2ccc(Nc3ncc4c(n3)N(c3cccc(N=S(C)(C)=O)n3)[C@@H]3CC(C)(C)OC[C@]43C)cc2F)CC1 (single isomer, unassigned) [Example 177]
Wee1 kinase domain
  IC50: < 10 nM
[1]
  IC50: 100 to 1000 nM

## CN1C[C@@H]2C[C@H]1CN2c1ccc(Nc2ncc3c(n2)N(c2cccc(N=S(C)(C)=O)n2)[C@@H]2CC(C)(C)OC[C@]32C)cc1F (single isomer, unassigned) [Example 180]
Wee1 kinase domain
  IC50: < 10 nM
[1]
  IC50: 100 to 1000 nM

## CN1CC(c2ccc(Nc3ncc4c(n3)N(c3cccc(N=S(C)(C)=O)n3)[C@@H]3CC(C)(C)OC[C@]43C)cc2Cl)C1 (single isomer, unassigned) [Example 181]
Wee1 kinase domain
  IC50: < 10 nM
[1]
  IC50: < 100 nM

## CC1(C)C[C@H]2N(c3cccc(N=S(C)(C)=O)n3)c3nc(Nc4ccc(C5CNC5)c(F)c4)ncc3[C@@]2(C)CO1 (single isomer, unassigned) [Example 183]
Wee1 kinase domain
  IC50: < 10 nM
[1]
  IC50: 100 to 1000 nM

## CN1CC(c2ccc(Nc3ncc4c(n3)N(c3cccc(N=S(C)(C)=O)n3)[C@@H]3CC(C)(C)OC[C@]43C)cc2F)C1 (single isomer, unassigned) [Example 184]
Wee1 kinase domain
  IC50: < 10 nM
[1]
  IC50: < 100 nM

## CN1Cc2cc(Nc3ncc4c(n3)N(c3cccc(N=S(C)(C)=O)n3)[C@@H]3CC(C)(C)OC[C@]43C)cnc2C1 (single isomer, unassigned) [Example 188]
Wee1 kinase domain
  IC50: < 10 nM
[1]
  IC50: < 100 nM

## CC1(C)C[C@H]2N(c3cccc(N=S(C)(C)=O)n3)c3nc(Nc4ccc(C5CNC5)nc4)ncc3[C@@]2(C)CO1 (single isomer, unassigned) [Example 190]
Wee1 kinase domain
  IC50: < 10 nM
[1]
  IC50: 100 to 1000 nM

## CN1CC(c2ccc(Nc3ncc4c(n3)N(c3cccc(N=S(C)(C)=O)n3)[C@@H]3CC(C)(C)OC[C@]43C)cn2)C1 (single isomer, unassigned) [Example 192]
Wee1 kinase domain
  IC50: < 10 nM
[1]
  IC50: 100 to 1000 nM

## CC1(C)C[C@H]2N(c3cccc(N=S(C)(C)=O)n3)c3nc(Nc4cnn(C5CCOCC5)c4)ncc3[C@@]2(C)CO1 (single isomer, unassigned) [Example 194]
Wee1 kinase domain
  IC50: < 10 nM
[1]
  IC50: 100 to 1000 nM

## CN1CC[C@H](n2cc(Nc3ncc4c(n3)N(c3cccc(N=S(C)(C)=O)n3)[C@@H]3CC(C)(C)OC[C@]43C)cn2)C1 (single isomer, unassigned) [Example 198]
Wee1 kinase domain
  IC50: < 10 nM
[1]
  IC50: 100 to 1000 nM

## CN1CCC[C@H](n2cc(Nc3ncc4c(n3)N(c3cccc(N=S(C)(C)=O)n3)[C@@H]3CC(C)(C)OC[C@]43C)cn2)C1 (single isomer, unassigned) [Example 199]
Wee1 kinase domain
  IC50: < 10 nM
[1]
  IC50: 100 to 1000 nM

## CN1CCC[C@@H](n2cc(Nc3ncc4c(n3)N(c3cccc(N=S(C)(C)=O)n3)[C@@H]3CC(C)(C)OC[C@]43C)cn2)C1 (single isomer, unassigned) [Example 201]
Wee1 kinase domain
  IC50: < 10 nM
[1]
  IC50: 100 to 1000 nM

## CN1CCCC(n2cc(Nc3ncc4c(n3)N(c3cccc(N=S(C)(C)=O)n3)C3CC(C)(C)OCC43C)cn2)C1 (single isomer, unassigned) [Example 202]
Wee1 kinase domain
  IC50: < 10 nM
[1]
  IC50: 100 to 1000 nM

## CN1CCC(c2cc(Nc3ncc4c(n3)N(c3cccc(N=S(C)(C)=O)n3)[C@@H]3CC(C)(C)OC[C@]43C)on2)CC1 (single isomer, unassigned) [Example 204]
Wee1 kinase domain
  IC50: < 10 nM
[1]
  IC50: 100 to 1000 nM

## CN1CCC(n2cnc(Nc3ncc4c(n3)N(c3cccc(N=S(C)(C)=O)n3)[C@@H]3CC(C)(C)OC[C@]43C)c2)CC1 (single isomer, unassigned) [Example 205]
Wee1 kinase domain
  IC50: < 10 nM
[1]
  IC50: < 100 nM

## CN1CC(n2cc(Nc3ncc4c(n3)N(c3cccc(N=S(C)(C)=O)n3)[C@@H]3CC(C)(C)OC[C@]43C)cn2)C1 (single isomer, unassigned) [Example 207]
Wee1 kinase domain
  IC50: < 10 nM
[1]
  IC50: 100 to 1000 nM

## CN1CCC[C@@H]1c1ccc(Nc2ncc3c(n2)N(c2cccc(N=S(C)(C)=O)n2)[C@@H]2CC(C)(C)OC[C@]32C)cn1 (single isomer, unassigned) [Example 210]
Wee1 kinase domain
  IC50: < 10 nM
[1]
  IC50: 100 to 1000 nM

## CC1(C)C[C@H]2N(c3cccc(N=S(C)(C)=O)n3)c3nc(Nc4ccc([C@H]5CCCN5)nc4)ncc3[C@@]2(C)CO1 (single isomer, unassigned) [Example 212]
Wee1 kinase domain
  IC50: < 10 nM
[1]
  IC50: 100 to 1000 nM

## CC1(C)C[C@H]2N(c3cccc(N=S(C)(C)=O)n3)c3nc(Nc4ccc([C@@H]5CCCN5)nc4)ncc3[C@@]2(C)CO1 (single isomer, unassigned) [Example 214]
Wee1 kinase domain
  IC50: < 10 nM
[1]
  IC50: 100 to 1000 nM

## CN1CCC[C@H]1c1ccc(Nc2ncc3c(n2)N(c2cccc(N=S(C)(C)=O)n2)[C@@H]2CC(C)(C)OC[C@]32C)cn1 (single isomer, unassigned) [Example 216]
Wee1 kinase domain
  IC50: < 10 nM
[1]
  IC50: 100 to 1000 nM

## CN1C[C@@H]2CN(c3ccc(Nc4ncc5c(n4)N(c4cccc(N=S(C)(C)=O)n4)[C@@H]4CC(C)(C)OC[C@]54C)cc3)C[C@@H]2C1 (single isomer, unassigned) [Example 217]
Wee1 kinase domain
  IC50: < 10 nM
[1]
  IC50: 100 to 1000 nM

## CN1CCC(c2ncc(Nc3ncc4c(n3)N(c3cccc(N=S(C)(C)=O)n3)[C@@H]3CC(C)(C)OC[C@]43C)s2)CC1 (single isomer, unassigned) [Example 221]
Wee1 kinase domain
  IC50: < 10 nM
[1]
  IC50: < 100 nM

## CC1(C)C[C@H]2N(c3cccc(N=S(C)(C)=O)n3)c3nc(Nc4cnn(C5COC5)c4)ncc3[C@@]2(C)CO1 (single isomer, unassigned) [Example 223]
Wee1 kinase domain
  IC50: < 10 nM
[1]
  IC50: 100 to 1000 nM

## CN1CC[C@H](n2ccc(Nc3ncc4c(n3)N(c3cccc(N=S(C)(C)=O)n3)[C@@H]3CC(C)(C)OC[C@]43C)n2)C1 (single isomer, unassigned) [Example 225]
Wee1 kinase domain
  IC50: < 10 nM
[1]
  IC50: 1000 to 10000 nM

## CN1CC[C@@H](n2ccc(Nc3ncc4c(n3)N(c3cccc(N=S(C)(C)=O)n3)[C@@H]3CC(C)(C)OC[C@]43C)n2)C1 (single isomer, unassigned) [Example 227]
Wee1 kinase domain
  IC50: < 10 nM
[1]
  IC50: 1000 to 10000 nM

## CC1(C)C[C@H]2N(c3cccc(N=S(C)(C)=O)n3)c3nc(Nc4cn(C5COC5)cn4)ncc3[C@@]2(C)CO1 (single isomer, unassigned) [Example 232]
Wee1 kinase domain
  IC50: < 10 nM
[1]
  IC50: 1000 to 10000 nM

## CC1(C)C[C@H]2N(c3cccc(N=S(C)(C)=O)n3)c3nc(Nc4ccn(C5CCOCC5)c(=O)c4)ncc3[C@@]2(C)CO1 (single isomer, unassigned) [Example 233]
Wee1 kinase domain
  IC50: < 10 nM
[1]
  IC50: 100 to 1000 nM

## C[C@H]1COC(=O)N1c1cccc(N2c3nc(Nc4ccc(N5CCN(C)CC5)cc4)ncc3[C@]3(C)COC(C)(C)C[C@H]23)n1 (single isomer, unassigned) [Example 235]
Wee1 kinase domain
  IC50: < 10 nM
[1]
  IC50: 100 to 1000 nM

## Cc1cc(Nc2ncc3c(n2)N(c2cccc(N4C(=O)OC[C@@H]4C)n2)[C@@H]2CC(C)(C)OC[C@]32C)ccc1N1CCN(C)CC1 (single isomer, unassigned) [Example 237]
Wee1 kinase domain
  IC50: < 10 nM
[1]
  IC50: < 100 nM

## Cc1cc(Nc2ncc3c(n2)N(c2cccc(N4C(=O)OC[C@@H]4C)n2)[C@@H]2CC(C)(C)OC[C@]32C)ccc1C1CCN(C)CC1 (single isomer, unassigned) [Example 238]
Wee1 kinase domain
  IC50: < 10 nM
[1]
  IC50: 100 to 1000 nM

## C[C@H]1COC(=O)N1c1cccc(N2c3nc(Nc4ccc(N5CCN(C)CC5)nc4)ncc3[C@@]3(C)COC(C)(C)C[C@@H]23)n1 (single isomer, unassigned) [Example 241]
Wee1 kinase domain
  IC50: < 10 nM
[1]
  IC50: 100 to 1000 nM

## C[C@H]1COC(=O)N1c1cccc(N2c3nc(Nc4cnn(C5CCN(C)CC5)c4)ncc3[C@@]3(C)COC(C)(C)C[C@@H]23)n1 (single isomer, unassigned) [Example 243]
Wee1 kinase domain
  IC50: < 10 nM
[1]
  IC50: < 100 nM

## C[C@H]1COC(=O)N1c1cccc(N2c3nc(Nc4ccc(N5C[C@@H]6C[C@H]5CN6C)cc4)ncc3[C@@]3(C)COC(C)(C)C[C@@H]23)n1 (single isomer, unassigned) [Example 245]
Wee1 kinase domain
  IC50: < 10 nM
[1]
  IC50: 100 to 1000 nM

## C[C@H]1COC(=O)N1c1cccc(N2c3nc(Nc4ccc(N5C[C@H]6C[C@@H]5CN6C)cc4)ncc3[C@]3(C)COC(C)(C)C[C@H]23)n1 (single isomer, unassigned) [Example 246]
Wee1 kinase domain
  IC50: 10 to 100 nM
[1]
  IC50: 1000 to 10000 nM

## C[C@H]1COC(=O)N1c1cccc(N2c3nc(Nc4ccc(N5C[C@H]6C[C@@H]5CN6C)cc4)ncc3[C@@]3(C)COC(C)(C)C[C@@H]23)n1 (single isomer, unassigned) [Example 247]
Wee1 kinase domain
  IC50: < 10 nM
[1]
  IC50: 100 to 1000 nM

## C[C@H]1COC(=O)N1c1cccc(N2c3nc(Nc4ccc(C5CCN(C)CC5)cc4)ncc3[C@@]3(C)COC(C)(C)C[C@@H]23)n1 (single isomer, unassigned) [Example 251]
Wee1 kinase domain
  IC50: < 10 nM
[1]
  IC50: 100 to 1000 nM

## C[C@H]1COC(=O)N1c1cccc(N2c3nc(Nc4cn(C5CCN(C)CC5)nn4)ncc3[C@@]3(C)COC(C)(C)C[C@@H]23)n1 (single isomer, unassigned) [Example 253]
Wee1 kinase domain
  IC50: < 10 nM
[1]
  IC50: 100 to 1000 nM

Reference: US20260166039A1 (SCHRÖDINGER, INC., priority 2022, published 2026)
